Assay results as given in US20010000731A1, “Method for the prevention and treatment of chronic venous insufficiency” (priority 1999, published 2001).

These compounds were tested on swelling of the recto-anus induced by croton oil (assay: Croton oil-induced hemorrhoid model in rats (recto-anus coefficient, RAC)). Settings: male SD rats; pure alkaloid oral 1 mg/kg; RAC determined 24 hours after induction; FIG. 3.
Assay type: in vivo, rat
Protocol: Male SD rats (6 weeks old, approximately 140 g) were purchased from Harlan Sprague Dawley and allowed to acclimate for 1 week. The rats were maintained in a pathogen-free facility in accordance with the National Research Council of Laboratory Animal care and use guidelines. Each experiment was preformed with age-matched rats 7- 8 weeks old. The croton oil-induced hemorrhoid model in rats was performed according to the method published by Nishiki (Nishiki et al. (1988) Folia Pharmacology Japan 92:215- 225; Nishiki et al. (1988) Folia Pharmacol. Japan 92:227-240). Briefly, a cotton swab with a diameter of 4 mm soaked with 0.16 mL of inducer (deionized water: pyridine : ethyl ether: 6% croton oil/ethyl ether (1:4:5:10) was applied to the rat's anus for 12 seconds. The final concentration of croton oil was 3%. The edema developed linearly until 7-8 hours after application and the severity of the edema was sustained for more than 24 hours. Twenty-four hours later, recto-anus tissue (approx. 10 mm long) was isolated after the rats were euthanized. The weights of rat body and recto-anus were measured. The recto-anus coefficient (RAC) was calculated using the formula: weight of recto-anus (mg)/body weight (g).
The average RAC of croton oil-treated rats was 2.10, which was 38.2% higher than that the rats treated with vehicle only (RAC=1.52). Vehicle alone did cause significant swelling of the recto-anus as compared with the rats without any treatment (RAC=0.98). Twenty-four hours after hemorrhoid induction with croton oil followed by treatment orally with prickly ash extract at either 6 mg/kg or 30 mg/kg and by treatment topically with prickly ash extract at 6 mg/mL in 1:1 aquaphor, the RAC of rats was determined.
This experiment was performed as described in Example 5. […] Twenty-four hours after hemorrhoid induction with croton oil followed by treatment orally with the pure alkaloids isolated from prickly ash extract at 1 mg/kg, the RAC of rats was determined. […]

Row | Compound | inhibition of the swelling of the recto-anus induced by croton oil (RAC)
1 | COc1ccc2c(c1O)-c1c(O)c(OC)cc3c1[C@H](C2)[N+](C)(C)CC3 [Magnoflorine] | completely inhibited
2 | Chelerythrine | partially reduced
3 | COc1cc2c(cc1O)C[C@H]1c3c(cc(OC)c(O)c3-2)CC[N+]1(C)C [Laurifoline] | partially reduced
